Results reported in patent publication EP3875590A1, “METHOD FOR PRODUCING ORGANIC COMPOUND AND CORYNEFORM BACTERIUM” (Green Earth Institute Co., Ltd., priority 2018, dated 2020).

Legend:
leucine dehydrogenase [1] = assay: enzyme kinetics (Michaelis-Menten) of the reductive amination reaction of HOB with purified leucine dehydrogenase; type: biochemical, Lysinibacillus sphaericus; settings: 100 mM HEPES/KOH (pH 7.5), 200 mM ammonium chloride, 0.2 mM NADH, 3.7 µg/mL leucine dehydrogenase
Protocol: The solution in which the bacterial cells were crushed and which was obtained in 4-6-(1) was subjected to a filtration treatment using a syringe filter with a pore size of 0.2 µm (manufactured by Sartorius AG). Fractionation was performed using an AKTA purifier system (manufactured by GE Healthcare) to which a HisTrap™ FF 1 mL column was connected, and using 50 mM sodium phosphate buffer (pH 8.0), 500 mM sodium chloride, and 10% glycerol as adsorption buffers, and 50 mM sodium phosphate buffer (pH 8.0), 500 mM sodium chloride, 10% glycerol, and 500 mM imidazole as elution buffers. Fractions containing leucine dehydrogenase identified by SDS-PAGE were recovered and concentrated using ultrafiltration. […]
Using the purified leucine dehydrogenase thus obtained, analysis of enzyme kinetics based on the Michaelis-Menten formula using HOB as a substrate was performed. As reaction conditions, 100 mM HEPES/KOH (pH 7.5), 200 mM ammonium chloride, 0.2 mM NADH, and 3.7 µg/mL leucine dehydrogenase were used, and a reaction rate at which a concentration of HOB was 3.13, 6.25, 12.5, 25.0, 50.0, and 100 mM was measured. A reaction rate was calculated by measuring a continuous decrease in absorption by NADH at 340 nm using a Varioskan LUX (manufactured by Thermo Fisher Scientific Inc.). […]

leucine dehydrogenase [2] = assay: oxidative deamination reaction activity against L-homoserine, crushed-cell solution expressing leucine dehydrogenase; type: biochemical, Lysinibacillus sphaericus; settings: crushed cells of GES1007 (E. coli BL21 (DE3), pGE1148); 100 mM glycine-KCl-KOH (pH 10.0), 2.5 mM NAD^+, 50 mM L-homoserine; NADH absorption at 340 nm
Protocol: Transformation was performed using pGE1148 and using ECOSTM Competent E. coli BL21 (DE3) (manufactured by NIPPON GENE CO., LTD.) according to its instructions, and the obtained strain was designated as GES1007. GES1007 was inoculated into an LB agar medium containing 100 µg/mL of ampicillin under aseptic conditions, and culture was performed at 37°C. Bacterial cells grown on the agar medium were inoculated into 10 mL of an LB medium containing 100 µg/mL of ampicillin, and shaking culture was performed at 37°C to prepare a seed culture solution. This seed culture solution was inoculated into 100 mL of an LB medium containing 100 µg/mL of ampicillin and prepared in a 500 mL flask so that a turbidity was 0.1. Shaking was performed at 37°C, and culture was performed until a turbidity was 0.7. […] When a protein concentration in this solution in which the cells were crushed was measured, it was 12 mg/mL.
Using this solution in which the bacterial cells were crushed, an oxidative deamination reaction activity against L-homoserine was measured. As the reaction conditions, an appropriately diluted solution in which the bacterial cells were crushed was mixed with 100 mM glycine-KCl-KOH (pH 10.0), 2.5 mM NAD^+, and 50 mM L-homoserine, and a continuous increase in absorption by NADH at 340 nm was measured using a Varioskan LUX (manufactured by Thermo Fisher Scientific Inc.). […]

valine dehydrogenase = target: T1, valine dehydrogenase (Streptomyces fradiae, UniProt P40176); assay: oxidative deamination reaction activity against L-homoserine, crushed-cell solution expressing valine dehydrogenase; type: biochemical; settings: crushed cells of GES1057 (E. coli BL21 (DE3), pGE1175); same conditions as 4-6-(1): pH 10.0, 2.5 mM NAD^+, 50 mM L-homoserine
T1 construct: His-tag (pET-15b vector-encoded, with thrombin site); made in house; host or cells: E. coli BL21 (DE3), strain GES1057, plasmid pGE1175 (pET-15b)
Protocol: (§1) Using this solution in which the bacterial cells were crushed, an oxidative deamination reaction activity against L-homoserine was measured. As the reaction conditions, an appropriately diluted solution in which the bacterial cells were crushed was mixed with 100 mM glycine-KCl-KOH (pH 10.0), 2.5 mM NAD^+, and 50 mM L-homoserine, and a continuous increase in absorption by NADH at 340 nm was measured using a Varioskan LUX (manufactured by Thermo Fisher Scientific Inc.). As a result, a specific activity of this solution in which the bacterial cells were crushed against L-homoserine was 0.21 U/mg of protein.
(§2) Transformation was performed using pGE1175 and using ECOSTM Competent E. coli BL21 (DE3) (manufactured by NIPPON GENE CO., LTD.) according to its instructions, and the obtained strain was designated as GES 1057. When a protein concentration in a solution, in which the cells were crushed and which was obtained by subjecting GES1057 to the same operation as that of GES 1007, was measured, it was 4.2 mg/mL.
(§3) As a result of measuring an oxidative deamination reaction activity against L-homoserine in the same manner as in 4-6-(1) using this solution in which the bacterial cells were crushed, a specific activity of this solution in which the bacterial cells were crushed against L-homoserine was 0.21 U/mg of protein.

[3] = target: T2, phenylalanine dehydrogenase (Pseudobacillus badius, UniProt Q59224); assay: oxidative deamination reaction activity against L-homoserine, crushed-cell solution expressing phenylalanine dehydrogenase; type: biochemical, Bacillus badius; settings: crushed cells of GES1136 (E. coli BL21 (DE3), pGE1237); same conditions as 4-6-(1): pH 10.0, 2.5 mM NAD^+, 50 mM L-homoserine
T2 construct: His-tag (pET-15b vector-encoded, with thrombin site); made in house; host or cells: E. coli BL21 (DE3), strain GES1136, plasmid pGE1237 (pET-15b)
Protocol: as §1
as §2, with “pGE1237” for “pGE1175”, “1136.” for “1057.”, “subj ecting GES1136” for “subjecting GES1057”, “11” for “4.2”
as §3, with “0.045” for “0.21”

T1 sequence (P40176 whole entry): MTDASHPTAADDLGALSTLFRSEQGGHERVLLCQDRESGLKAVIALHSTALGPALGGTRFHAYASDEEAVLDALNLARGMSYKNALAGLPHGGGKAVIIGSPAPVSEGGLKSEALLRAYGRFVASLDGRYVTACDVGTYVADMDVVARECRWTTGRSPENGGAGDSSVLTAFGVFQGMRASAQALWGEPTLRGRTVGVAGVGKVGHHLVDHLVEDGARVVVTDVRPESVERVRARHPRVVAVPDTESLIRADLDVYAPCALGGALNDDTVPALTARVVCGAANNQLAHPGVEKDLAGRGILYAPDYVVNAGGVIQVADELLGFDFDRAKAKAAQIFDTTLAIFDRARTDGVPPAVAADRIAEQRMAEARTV
T2 sequence (Q59224 whole entry): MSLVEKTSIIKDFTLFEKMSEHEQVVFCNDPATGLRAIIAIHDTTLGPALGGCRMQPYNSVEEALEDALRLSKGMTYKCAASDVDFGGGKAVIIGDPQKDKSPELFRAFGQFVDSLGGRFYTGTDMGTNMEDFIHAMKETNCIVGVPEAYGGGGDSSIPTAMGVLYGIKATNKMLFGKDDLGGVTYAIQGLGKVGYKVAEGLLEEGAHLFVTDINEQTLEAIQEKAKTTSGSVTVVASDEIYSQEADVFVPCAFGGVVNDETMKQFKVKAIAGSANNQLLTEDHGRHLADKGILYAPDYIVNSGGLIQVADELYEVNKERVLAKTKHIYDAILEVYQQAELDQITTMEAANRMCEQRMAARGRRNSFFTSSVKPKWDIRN

Row | SMILES | Km (leucine dehydrogenase [1]; HOB 3.13-100 mM, read-out: Michaelis constant KM for HOB) [mM] | catalyst rotation speed kcat (leucine dehydrogenase [1]; HOB as a substrate) [s⁻¹] | specific activity of this solution in which the bacterial cells were crushed against L-homoserine (leucine dehydrogenase [2]) | specific activity of this solution in which the bacterial cells were crushed against L-homoserine (valine dehydrogenase) | specific activity of this solution in which the bacterial cells were crushed against L-homoserine [3]
1 | O=C(O)C(=O)CCO [HOB, 4-hydroxy-2-oxobutyric acid] | 7.7 | 2.7 | – | – | –
2 | N[C@@H](CCO)C(=O)O [L-homoserine] | – | – | 0.21 U/mg of protein | 0.21 U/mg of protein | 0.045 U/mg of protein
